This is an account of results in patent publication US12312376B2 (priority 2020, dated 2025).

Read-outs that look alike come from different tables or passages of the source.

Data set [1] has as its system normal, human-derived tracheal/bronchial epithelial (TBE) cells.
A short description of data set [2]: Clinical trials of tdsRNA (safety). The data set is classed as in vivo. From the text:
tdsRNA has undergone extensive clinical and preclinical testing. […] Favorable safety profiles have been seen for intraperitoneal, intravenous, and intranasal routes of administration of tdsRNA.

A short description of data set [3]: Intranasal safety profile of rintatolimod compared with EC90. Type of data set: in vivo, humans. The conditions noted are these: dose concentration 2500 μg/ml (45×EC90).
Where [4] appears, read: over 1,200 patients, over 100,000 doses administered.

Take rIn•r(C12U)n [Rintatolimod]: the cellular toxicity in data set [1] (0.5 mg/mL) and in data set [1] (1.5 mg/mL) was 0% in each case. In addition, the cytotoxic in data set [1] (4.5 mg/mL) is reported as 12%; in data set [1] (10 mg/mL), 47%. In data set [2] (setting [4]), the drug-related deaths result is listed as “no drug-related deaths”. The “tolerability in clinical trials” value in data set [2] (setting [4]) was “generally well-tolerated”. The “serious adverse events compared to placebo” value in data set [2] (two placebo-controlled, randomized studies) is given as “no increase in serious adverse events compared to placebo”. In addition, the “Intranasal tolerability in humans” value in data set [3] is “well tolerated in humans”.
